From patent publication US20220409578A1, “FUNCTIONALIZED 1,3-BENZENE DIOLS AND THEIR METHOD OF USE FOR THE TREATMENT OF RADIATION DERMATITIS AND OTHER SKIN DISORDERS” (KANNALIFE SCIENCES, INC., priority 2019, published 2022) come the findings set out here.

In one data set the test system is IL-1β. The data set can be described thus: IL-1β release from UV-B irradiated human epidermal keratinocytes (ELISA). It counts as cell-based. Particulars: Keratinocyte, light or radiation study; UV-B 25 mJ/cm^2, human epidermal keratinocytes; read-out: IC50 of interleukin-1β inhibition. As to the method: Normal human epidermal keratinocytes cultures were utilized to measure the release of proinflammatory cytokines and chemokines. Primary epidermal keratinocytes from neonatal donors were used from human origin and purchased from Thermo-Fisher (Cat No. A13401). […] Cells were cultured until the second passage and then acclimated for 48 hours more before UV-B irradiation. Dosing procedures and cell groups were identified using appropriate cell culture 24-well plates. The cell culture incubator was set at 5% v/v CO2 with temperature and humidity maintained at 36-38° C. and 40-70%, respectively. The test and control substances were administered to HKGS-depleted medium in triplicates. A fixed 5 μL/well from 100× stock dose volume was administered to 500 μL of media to each cell culture well on Day 3 and pre-incubated for 6 hours and then post-UVB incubated for 18 hours. […] Media supernatants were harvested and analyzed for TNFα and IL-1β levels by ELISA method. Cytokine levels were assessed from cell culture media supernatants using BD Biosciences OptEIA™ Human TNFα (Cat. No. 555212) and IL-1β (Cat. No. 557953) and ELISA set kit and Reagent Set B (Cat. No. 550534) according the manufacture's specifications. Absorbance was measured at 450 nm using a plate reader and calculated cytokine levels were determined from a standard curve.

Data set [1] can be described thus: Antioxidant capacity (ABTS/metmyoglobin assay). Type of data set: biochemical. Particulars: OD 750 nm, 15 minutes after hydrogen peroxide. On the procedure:
Antioxidant capacity: The purpose of this study was to evaluate the overall antioxidant capacity of KLS-13022 for the ability to inhibit the oxidation of ABTS. (2,2′-Azino-di-[3-ethylbenzthiazoline sulphonate]) to ABTS.^+ by metmyoglobin. Ascorbic acid (Vitamin C) was used as positive antioxidant control in the assay. The testing involved the suppression of optical density (OD) at 750 nm to a degree, which is proportional to an effective oxidation inhibition. Neat solutions were prepared for materials formulated in HPLC-grade water (ascorbic acid) or 200-proof ethanol (KLS-13022). Serial dilutions were prepared for each material and mixed with metmyoglobin enzyme in assay buffer solution. All samples were compared to vehicle-only treated samples used as negative oxidation inhibition. Optical density changes at 750 nm were evaluated 15 minutes after addition of hydrogen peroxide to each sample. Average absorbance was calculated and plotted for each sample concentration. Effective antioxidant inhibition activity based on the change of absorbance of blank (vehicle-only) sample (no material added). […] The Antioxidant assay kit was obtained from Cayman Chemical Co. (Ann Arbor, Mich.). The assay consisted in the evaluation of the overall antioxidant capacity of test materials for the ability to inhibit the oxidation of ABTS. to ABTS.^+ by metmyoglobin. […]

For data set [2], the system named is human dermal fibroblast cells. It counts as cell-based. Particulars: 24 h. On the procedure: Primary dermal fibroblasts cells of human origin were cultured in vitro using standard conditions (37° C., 95% v/v air, 5% v/v CO2). Primary dermal fibroblasts from neonatal donor were used from human origin and purchased from Thermo-Fisher (Cat No. […]). […] Cells were cultured until the second passage and then acclimated for 48 hours before UVA irradiation and dosing procedures conducted in 24-well plates. On Day 3, test materials were dosed to cell culture media and pre-incubated for 6 hours. Treatment media was then removed and replaced with phosphate buffer saline (PBS) without test materials and Ultraviolet-A (UV-A) was irradiated at 12.5 J/cm^2 using FS-20/T-12 bulbs (315-400 nm). After UV-A irradiation, PBS was replaced with fresh DMEM medium with test materials and incubated for 18 hours at standard culture conditions. After incubation, culture medium supernatants were harvested and used to measure human IL-6 levels by ELISA method. In vitro dosing route was selected to test the activity of KLS-13022 after pro-inflammatory inducer UV-A irradiation, since isolated human cell culture provide direct activity indication and specific cell-type effects. Human cells were selected as relevant to cell types within skin tissues for this development program. […] Absorbance was measured at 490 nm using plate reader and cell viability was calculated as a percent of control. […]

The next data set concerns CXCL5. The experiment in a line: CXCL5 chemokine secretion by UV-B irradiated NHEKs (ELISA). It counts as cell-based, human. On the procedure:
Normal human epidermal keratinocytes cultures were utilized to measure the release of proinflammatory cytokines and chemokines. Primary epidermal keratinocytes from neonatal donors were used from human origin and purchased from Thermo-Fisher (Cat No. A13401). […] Cells were cultured until the second passage and then acclimated for 48 hours more before UV-B irradiation. Dosing procedures and cell groups were identified using appropriate cell culture 24-well plates. The cell culture incubator was set at 5% v/v CO2 with temperature and humidity maintained at 36-38° C. and 40-70%, respectively. The test and control substances were administered to HKGS-depleted medium in triplicates. A fixed 5 μL/well from 100× stock dose volume was administered to 500 μL of media to each cell culture well on Day 3 and pre-incubated for 6 hours and then post-UVB incubated for 18 hours. […] CXCL5 levels were quantified by enzyme-linked immunosorbent assay (ELISA) after UV-B irradiation and incubation with test and control materials. CXCL5 levels were assessed from cell culture media supernatants using R&D Systems Human CXCL5/ENA-78 DuoSet ELISA kit (Cat. No. DY254-05) according to the manufacture's specifications. Absorbance was measured at 450 nm using plate reader and cytokine levels were calculated from a standard curve.
In general terms: An ELISA detects its analyte on a solid surface through an enzyme-linked reagent.

Where only a bound is given, the exact number is not on record here.

`C=C(C)[C@@H]1CCC(C)=C[C@H]1c1c(O)cc(CC2CN(C(=O)OCC)C2)cc1O` [KLS-13022, ethyl 3-(3,5-dihydroxy-4-((1R,6R)-3-methyl-6-(prop-1-en-2-yl)cyclohex-2-enyl)benzyl)azetidine-1-carboxylate]: in the data set with IL-1β, the concentration for half-maximal inhibition (IC50) worked out at 380 nM. Moreover, in data set [1], it took 25600 nM to reach a half-maximal effect (EC50). Besides, in data set [2], the non-toxic concentration range is at most 1.67 µM and the toxic concentration amounted to 3.3 µM. Also, the CXCL5 inhibition with CXCL5 is reported as 100%. Moreover, in the data set with CXCL5 (Homo sapiens, NHEK, light or radiation study, read-out: IC50 of CXCL5 inhibition), the IC50 was determined as 50 nM.

As usually defined, the IC50 is the concentration needed to halve the response being measured. As usually defined, the EC50 is the concentration at which the effect is half-maximal. A high value points to a need for much substance.
